Results taken from BindingDB's records for doi:10.1021/bi020016x (Weizmann Institute of Science, 2002).

Tests used:
Acetylcholinesterase [1] = biological target: Acetylcholinesterase (Homo sapiens, UniProt P22303); experiment: Enzyme Inhibition Assay; details: pH 7.5; 25 °C
Procedure: (§1) The cholinesterase assays were performed using colorimetric method reported by Ellman. Enzyme activity was determined by measuring the absorbance at 412 nm for 2 min, relative to the drug-free control. Triplicate measurements were carried out at a total of 8 drug concentrations. The IC50 values were determined from a plot of percentage of inhibition vs -log [drug].

Acetylcholinesterase [2] = biological target: Acetylcholinesterase (Tetronarce californica, UniProt P04058); experiment: Enzyme Inhibition Assay; details: pH 7.5; 25 °C
Acetylcholinesterase (Tetronarce californica, UniProt P04058), sequence (P04058 whole entry): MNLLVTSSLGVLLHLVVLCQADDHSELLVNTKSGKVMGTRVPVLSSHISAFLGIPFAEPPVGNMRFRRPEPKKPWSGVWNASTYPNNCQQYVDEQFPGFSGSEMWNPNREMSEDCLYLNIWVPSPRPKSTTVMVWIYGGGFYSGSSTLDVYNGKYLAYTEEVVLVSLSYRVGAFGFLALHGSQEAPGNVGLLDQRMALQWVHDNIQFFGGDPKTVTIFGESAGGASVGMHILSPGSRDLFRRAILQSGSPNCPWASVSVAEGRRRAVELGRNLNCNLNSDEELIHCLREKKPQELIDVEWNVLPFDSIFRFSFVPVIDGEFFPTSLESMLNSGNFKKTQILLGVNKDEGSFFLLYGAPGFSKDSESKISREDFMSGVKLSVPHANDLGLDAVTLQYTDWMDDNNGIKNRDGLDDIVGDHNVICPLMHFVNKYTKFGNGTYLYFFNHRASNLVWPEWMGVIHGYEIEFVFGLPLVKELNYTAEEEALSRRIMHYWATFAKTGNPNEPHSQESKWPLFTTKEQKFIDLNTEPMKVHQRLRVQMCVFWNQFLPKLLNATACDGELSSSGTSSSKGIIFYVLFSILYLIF
Procedure: as §1

Acetylcholinesterase (Homo sapiens, UniProt P22303), sequence (P22303 whole entry): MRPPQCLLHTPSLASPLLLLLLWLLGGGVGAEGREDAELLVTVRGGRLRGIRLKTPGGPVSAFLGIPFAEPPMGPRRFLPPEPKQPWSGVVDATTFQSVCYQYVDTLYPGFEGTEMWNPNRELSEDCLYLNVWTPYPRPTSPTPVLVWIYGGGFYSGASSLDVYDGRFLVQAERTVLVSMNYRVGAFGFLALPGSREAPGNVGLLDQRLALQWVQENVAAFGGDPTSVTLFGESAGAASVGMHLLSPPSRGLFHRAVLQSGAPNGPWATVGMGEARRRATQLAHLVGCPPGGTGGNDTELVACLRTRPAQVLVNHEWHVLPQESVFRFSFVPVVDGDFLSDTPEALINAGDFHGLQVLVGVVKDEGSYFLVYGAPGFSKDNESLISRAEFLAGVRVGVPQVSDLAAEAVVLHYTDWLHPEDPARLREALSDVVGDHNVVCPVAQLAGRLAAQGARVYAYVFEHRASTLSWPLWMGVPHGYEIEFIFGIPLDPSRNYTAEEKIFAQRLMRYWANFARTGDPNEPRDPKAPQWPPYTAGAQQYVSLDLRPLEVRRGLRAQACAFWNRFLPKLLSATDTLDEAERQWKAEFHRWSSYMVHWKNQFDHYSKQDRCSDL

## C[C@@H](c1cccc(O)c1)N(C)C [3-[1-(dimethylamino)ethyl]phenol]
Acetylcholinesterase [1]
  Ki: 33 µM
Acetylcholinesterase [2]
  Ki: 0.7 µM
